Reference: PMC10671849, “Synthesis and Evaluation of Marine-Inspired Compounds Result in Hybrids with Antitrypanosomal and Antileishmanial Activities” (Marine Drugs, 2023)
In brackets after ≈: the same amount, converted by molar mass. Where two headings read alike, the source gives them in different places.

Key:
Format in all cases: cell-based
[1] = test system: L. infantum promastigotes; experiment: Anti-Leishmania activity, resazurin-based assay; details: read-out: Anti-Parasitic Activity IC50 (µM) 95% CI, L. infantum Promastigotes
Procedure: Promastigotes from the L. infantum strain (MHOM/MA/67/ITMAP-263) were grown in 5-mL T25 flasks in Schneider’s insect medium supplemented with 10% heat-inactivated fetal bovine serum (FBS), 200 U/mL penicillin/streptomycin, 6 µg/mL Phenol Red, and 5 mM HEPES. The cultures were maintained in an incubator at 27 °C and diluted to 2 × 10^5/mL every 5 days. For the assays, the parasites used were equivalent to late/log with 2 or 3 days of culture.
The compounds’ efficacy against L. infantum promastigotes was evaluated using a resazurin-based assay. Parasites were added to 100 µL of serial dilutions of compounds in supplemented complete medium at a cell density of 5 × 10^5/mL. As a quality control, a dose–response curve to the antileishmanial drug miltefosine was included in all the assays. The final volume of the assay was 200 µL/well. Each condition was carried out in duplicate. Following 72 h of incubation at the specific conditions for parasites, 20 µL of a 0.5 mM resazurin solution was added, and the plates were incubated for a further 4 h under the same conditions. Fluorescence was measured at 544 nm and 590 nm excitation and emission wavelengths, respectively, using a Synergy 2 Multi-Mode Reader (Biotek, Winooski, VT, USA). Results are shown as % of parasite growth inhibition compared to control (untreated parasites) and represent the average of at least three independent experiments. The effect was evaluated by the determination of the IC50 value (concentration required to inhibit growth in 50%) and was calculated by non-linear regression curves using GraphPad Prism software, version 8.1.1 for Windows (GraphPad Software, San Diego, CA, USA).

[2] = test system: Aspergillus fumigatus ATCC 240305; experiment: Antifungal broth microdilution (CLSI M38-A2), MIC/MLC; details: for MIC: Aspergillus fumigatus, ATCC240305, broth microdilution, 16 to 512 µg/mL, 48 h at 36 °C
Procedure: (§1) All tested compounds (9a–9d, 10a–10c, 13, 14, and eugenol (1)) were prepared in DMSO (Sigma-Aldrich, St. Louis, MO, USA) at a concentration of 10 mg/mL. The reference drugs used (voriconazole (Sigma-Aldrich, St. Louis, MO, USA) for fungi and quality control; gentamicin (Sigma-Aldrich, St. Louis, MO, USA) for bacterial and quality control) were prepared at 6.4 mg/mL. The stock solutions of the compounds were stored at –20 °C until immediately before the assays and then were diluted in fresh culture medium, RPMI-1640 medium (Biochrom AG, Berlin, Germany) buffered with 3-(N-morpholino)propanesulfonic acid (MOPS—Sigma-Aldrich, St. Louis, MO, USA) for fungi and cation-adjusted Mueller–Hinton broth (MHBII—Becton Dickinson, France) for bacteria, henceforth referred to as RPMI and MHB, respectively.
(§2) Fungal strains, including reference strains and clinical isolates, were used for the study of the antifungal activity: a yeast reference strain from American Type Culture Collection (ATCC), Candida albicans ATCC 10231; filamentous fungi reference strain Aspergillus fumigatus ATCC 240305; and a clinical isolate of dermatophytes Trichophyton rubrum FF5. Candida krusei ATCC 6258 was used as a quality control. All fungal strains were stored in Sabouraud dextrose broth (SDB—Bio-Mèrieux, Marcy L’Etoile, France) with glycerol (20%) at −80 °C and were subcultured in Sabouraud dextrose agar (SDA—Bio-Mèrieux, Marcy L’Etoile, France) for 24–72 h (yeasts and A. fumigatus) or 5–7 days (T. rubrum) before each assay to obtain optimal growth and purity conditions. Two bacteria strains were used, one Gram positive and one Gram negative: Staphylococcus aureus ATCC 25923 and Escherichia coli ATCC 25922, respectively. The bacterial strains were stored in trypticase soy broth (TSB—Biolife, Milan, Italy) with glycerol (10%) at −80 °C and subcultured in Mueller–Hinton agar (MHA—Bio-Mèrieux, Marcy L’Etoile, France) for 24 h before each assay.
(§3) For the purpose of quantitatively measuring the antifungal activity in vitro, a broth microdilution method was used to determine the MICs using the CLSI reference protocols M27-A3 [27] for yeasts and M38-A2 [28] for filamentous fungi. In short, two-fold serial dilutions of each stock solution were prepared using RPMI medium (pH 7) to obtain a range of test concentrations from 16 to 512 μg/mL. The yeasts or spore suspensions were prepared from 24 to 72-h cultures (yeasts and Aspergillus) or from 5–7 days of cultures (dermatophyte) in saline solution (with a drop of Tween 20 for the filamentous fungi). The transmittance of the cell density of yeasts was adjusted to 0.5 McFarland standard, and for filamentous fungi, the spores were counted using a Neubauer camera. Dilutions were performed using RPMI to obtain cell final concentrations in the plate of 0.5–2.5 × 10^3 colony forming units (CFU)/mL for yeasts, 0.4–5 × 10^4 CFU/mL for Aspergillus, and 1–3 × 10^3 CFU/mL for dermatophytes. Plates with the prepared serial dilutions of the tested compounds were inoculated with the same volume of the fungal suspension, and sterility (wells with only culture medium), growth (wells with cell suspensions in culture medium), and DMSO controls (wells with cell suspensions in culture medium containing 1% DMSO) were included in each assay. […] For the tested compounds, MIC values were considered the minimum concentration that inhibited the yeast growth by 100% compared to the growth control. The reference drug, voriconazole, was tested against C. krusei ATCC 6258 as a quality control, and the results were within the limits of CLSI reference documents.
(§4) After MIC readings, 10 μL of suspension were collected from wells corresponding to the MIC and the highest concentration following the MIC and were deposited in SDA plates. The plates were incubated following the conditions previously mentioned for the MIC evaluation, and the MLC was determined as the lowest concentration at which no fungal growth is observed.

Trichophyton rubrum FF5 = experiment: as above; details: for MIC: Trichophyton rubrum, FF5, broth microdilution, read-out: MIC T. rubrum; for MIC / MIC T. rubrum: 16 to 512 µg/mL, 5–7 days at 26 °C; for MIC T. rubrum: broth microdilution; for MLC T. rubrum: minimum lethal concentration, subculture on SDA after MIC reading
Procedure: as §1, §2, §3, §4

[3] = 72 h incubation, resazurin, highest concentration tested 40 µM, 95% CI in parentheses

Compound | IC50 [1, 3] | MIC [2] | MIC (Trichophyton rubrum FF5) | MIC T. rubrum (Trichophyton rubrum FF5) | MLC T. rubrum (Trichophyton rubrum FF5) | IC50 ([1]; 72 h) | MLC A. fumigatus ([2]; minimum lethal concentration, subculture on SDA after MIC reading)
C=CCc1ccc(O)c(OC)c1 [Eugenol, eugenol, reference compound] |  | 512 µg/mL (≈ 3120 µM) | 256 µg/mL (≈ 1560 µM) |  |  | > 40 µM | > 512 µg/mL
C=CCc1ccc(OCc2cn(CC(=O)Nc3ccccc3C(=O)O)nn2)c(OC)c1 [compound 13, 2-(2-(4-((4-allyl-2-methoxyphenoxy)methyl)-1H-1,2,3-triazol-1-yl)acetamido) benzoic acid] | > 40 µM | > 512 µg/mL | > 512 µg/mL |  |  |  | 
C=CCc1cc(Cn2cc(-c3nc4ccccc4c(=O)o3)nn2)c(O)c(OC)c1 [compound 14, 2-(1-(5-allyl-2-hydroxy-3-methoxybenzyl)-1H-1,2,3-triazol-4-yl)-4H-benzo[d][1,3]oxazin-4-one] | > 40 µM | > 512 µg/mL | 256 to 512 µg/mL (≈ 656 to 1310 µM) | 256 to 512 µg/mL | > 512 µg/mL |  | 

The next lines start with results.

IC50 [1, 3] | MIC [2] | MIC (Trichophyton rubrum FF5) | MIC T. rubrum (Trichophyton rubrum FF5) | Compound | MLC T. rubrum (Trichophyton rubrum FF5) | IC50 ([1]; 72 h) | MLC A. fumigatus ([2]; minimum lethal concentration, subculture on SDA after MIC reading)
> 40 µM | > 512 µg/mL | 512 µg/mL (≈ 1260 µM) | 256 to 512 µg/mL | C=CCc1cc(Cn2cc(C(=O)Nc3ccccc3C(N)=O)nn2)c(O)c(OC)c1 [9a, 1-(5-allyl-2-hydroxy-3-methoxybenzyl)-N-(2-carbamoylphenyl)-1H-1,2,3-triazole-4-carboxamide] | > 512 µg/mL |  | 
> 40 µM | > 512 µg/mL | > 512 µg/mL |  | C=CCc1cc(Cn2cc(C(=O)Nc3ccc(OC)cc3C(N)=O)nn2)c(O)c(OC)c1 [9b, 1-(5-allyl-2-hydroxy-3-methoxybenzyl)-N-(2-carbamoyl-4-methoxyphenyl)-1H-1,2,3-triazole-4-carboxamide] |  |  | 
7.54 µM | > 512 µg/mL | > 512 µg/mL |  | C=CCc1cc(Cn2cc(C(=O)Nc3ccc(F)cc3C(N)=O)nn2)c(O)c(OC)c1 [9c, 1-(5-allyl-2-hydroxy-3-methoxybenzyl)-N-(2-carbamoyl-4-fluorophenyl)-1H-1,2,3-triazole-4-carboxamide] |  |  | 
> 40 µM | > 512 µg/mL | 512 µg/mL (≈ 1160 µM) | 256 to 512 µg/mL | C=CCc1cc(Cn2cc(C(=O)Nc3ccc(Cl)cc3C(N)=O)nn2)c(O)c(OC)c1 [9d, 1-(5-allyl-2-hydroxy-3-methoxybenzyl)-N-(2-carbamoyl-4-chlorophenyl)-1H-1,2,3-triazole-4-carboxamide] | > 512 µg/mL |  | 
> 40 µM | > 512 µg/mL | 512 µg/mL (≈ 1310 µM) | 256 to 512 µg/mL | C=CCc1cc(Cn2cc(-c3nc4ccccc4c(=O)[nH]3)nn2)c(O)c(OC)c1 [10a, 2-(1-(5-allyl-2-hydroxy-3-methoxybenzyl)-1H-1,2,3-triazol-4-yl)quinazolin-4(3H)-one] | > 512 µg/mL |  | 
> 40 µM | > 512 µg/mL | > 512 µg/mL |  | C=CCc1cc(Cn2cc(-c3nc4ccc(OC)cc4c(=O)[nH]3)nn2)c(O)c(OC)c1 [10b, 2-(1-(5-allyl-2-hydroxy-3-methoxybenzyl)-1H-1,2,3-triazol-4-yl)-6-methoxyquinazolin-4(3H)-one] |  |  | 
> 40 µM | > 512 µg/mL | 512 µg/mL (≈ 1260 µM) | 256 to 512 µg/mL | C=CCc1cc(Cn2cc(-c3nc4ccc(F)cc4c(=O)[nH]3)nn2)c(O)c(OC)c1 [10c, 2-(1-(5-allyl-2-hydroxy-3-methoxybenzyl)-1H-1,2,3-triazol-4-yl)-6-fluoroquinazolin-4(3H)-one] | > 512 µg/mL |  | 
